Biological target: PI3K gamma (Homo sapiens, UniProt P48736)
Assay: PI3K gamma in vitro inhibition
Format: biochemical
Conditions: read-out: IC50 inhibition PI3K gamma
Procedure: (§1) The kinase or bromodomain inhibitory activity of a compound of the invention can be determined by routine methods known to the skilled artisan without undue experimentation, or by procuring relevant analysis by a commercial vendor offering such services. […] In vivo, PI3K inhibition can be determined from target tissue biopsies by standard tissue processing in which cells are disrupted and Western Blot analysis is performed to determine the presence or absence of pAKT (substrate of PI3K) relative to a control sample. PI3K inhibition assays and BTK inhibition assays are known in the art and can be procured commercially through vendors such as Reaction Biology (Malvern, PA). The activity of a compound of the invention as an inhibitor of a bromodomain-containing protein, such as a BET protein, including BRD2, BRD3, BRD4, and/or BRDT, or an isoform or mutant thereof, may be determined in vitro, in vivo, or in a cell line. In vitro assays include assays that determine inhibition of bromodomain-containing proteins. Alternatively, inhibitor binding may be determined by running a competition experiment where a provided compound is incubated with a bromodomain-containing protein, such as a BET protein bound to known ligands, labeled or unlabeled. In vitro bromodomain inhibition assays can be performed using Alpha Screen Technology (Perkin Elmer Life and Analytical Sciences, Shelton, CT). In vivo bromodomain inhibition can be determined indirectly by evaluating the amount of a protein whose gene transcription is influenced or controlled by the bromodomain protein, for example, MYCN protein transcription is controlled by BRD4 (J.E. Delmore et al., Cell 2011, 146, 904-917; A. Puissant, Cancer Discov. 2013, 3, 308-323).
(§2) IC50 inhibition data against the indicated targets were determined for compounds of the invention using standard in vitro assays (Tables 8 and 9).

PI3K gamma, sequence (P48736 whole entry): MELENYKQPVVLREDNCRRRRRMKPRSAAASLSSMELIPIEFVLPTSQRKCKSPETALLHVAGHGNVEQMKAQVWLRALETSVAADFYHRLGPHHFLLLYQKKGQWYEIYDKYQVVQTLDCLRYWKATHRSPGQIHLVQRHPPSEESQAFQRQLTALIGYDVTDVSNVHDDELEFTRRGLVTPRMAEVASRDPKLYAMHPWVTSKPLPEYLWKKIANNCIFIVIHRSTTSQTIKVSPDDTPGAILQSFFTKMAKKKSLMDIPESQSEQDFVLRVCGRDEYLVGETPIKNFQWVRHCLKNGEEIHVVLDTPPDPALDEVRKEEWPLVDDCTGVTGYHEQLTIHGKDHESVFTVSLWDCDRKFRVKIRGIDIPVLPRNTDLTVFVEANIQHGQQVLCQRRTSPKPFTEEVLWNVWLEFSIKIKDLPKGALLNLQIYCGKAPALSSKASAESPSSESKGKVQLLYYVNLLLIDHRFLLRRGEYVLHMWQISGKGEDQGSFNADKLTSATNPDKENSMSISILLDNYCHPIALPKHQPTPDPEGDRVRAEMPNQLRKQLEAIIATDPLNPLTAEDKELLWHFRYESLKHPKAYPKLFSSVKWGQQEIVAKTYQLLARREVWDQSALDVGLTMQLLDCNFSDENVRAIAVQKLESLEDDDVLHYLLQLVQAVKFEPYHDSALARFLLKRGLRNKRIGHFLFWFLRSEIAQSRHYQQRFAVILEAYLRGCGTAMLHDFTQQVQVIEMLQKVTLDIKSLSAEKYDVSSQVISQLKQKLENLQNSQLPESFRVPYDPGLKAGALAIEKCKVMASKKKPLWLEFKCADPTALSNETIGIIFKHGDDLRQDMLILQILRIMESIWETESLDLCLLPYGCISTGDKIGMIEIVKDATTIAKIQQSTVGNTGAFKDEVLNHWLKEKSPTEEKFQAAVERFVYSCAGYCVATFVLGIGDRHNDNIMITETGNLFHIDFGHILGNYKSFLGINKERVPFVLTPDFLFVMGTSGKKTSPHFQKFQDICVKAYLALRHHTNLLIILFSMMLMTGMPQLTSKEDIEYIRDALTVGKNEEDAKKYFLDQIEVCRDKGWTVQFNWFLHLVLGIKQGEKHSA

C=CS(=O)(=O)N(C)c1cccc(-c2csc3c(=O)cc(N4CCOCC4)oc23)c1 [Compound 47] and C=CS(=O)(=O)N(c1cccc(-c2csc3c(=O)cc(N4CCOCC4)oc23)c1)S(=O)(=O)C=C [Compound 50] cannot be ordered by IC50: < 0.5 µM for the first, < 0.5 µM for the second.

C=CS(=O)(=O)N(C)c1cc(-c2csc3c(=O)cc(N4CCOCC4)oc23)ccc1OC [Compound 48] and C=CS(=O)(=O)N(c1cc(-c2csc3c(=O)cc(N4CCOCC4)oc23)ccc1OC)S(=O)(=O)C=C [Compound 49] cannot be ordered by IC50: < 0.5 µM for the first, < 0.5 µM for the second.

First: C=CS(=O)(=O)N(CCS(=O)(=O)N(c1cc(-c2csc3c(=O)cc(N4CCOCC4)oc23)ccc1OC)S(=O)(=O)C=C)c1cc(-c2csc3c(=O)cc(N4CCOCC4)oc23)ccc1OC [Compound 51]
Second: Cc1nn(-c2ccnc(Nc3ccc(-c4csc5c(=O)cc(N6CCOCC6)oc45)cc3)n2)cc1CN1CC(O)C1 [Compound 52]
The IC50 of the first is lower: 0.5 to 1 µM for the first, 10 to 45 µM for the second.

For Cc1nn(-c2ccnc(Nc3ccc(-c4csc5c(=O)cc(N6CCNCC6)oc45)cc3)n2)cc1CN1CC(O)C1 [Compound 53], the IC50 was > 45 µM.

Biological target: PI3K beta (Homo sapiens, UniProt P42338)
Sequence (P42338 whole entry): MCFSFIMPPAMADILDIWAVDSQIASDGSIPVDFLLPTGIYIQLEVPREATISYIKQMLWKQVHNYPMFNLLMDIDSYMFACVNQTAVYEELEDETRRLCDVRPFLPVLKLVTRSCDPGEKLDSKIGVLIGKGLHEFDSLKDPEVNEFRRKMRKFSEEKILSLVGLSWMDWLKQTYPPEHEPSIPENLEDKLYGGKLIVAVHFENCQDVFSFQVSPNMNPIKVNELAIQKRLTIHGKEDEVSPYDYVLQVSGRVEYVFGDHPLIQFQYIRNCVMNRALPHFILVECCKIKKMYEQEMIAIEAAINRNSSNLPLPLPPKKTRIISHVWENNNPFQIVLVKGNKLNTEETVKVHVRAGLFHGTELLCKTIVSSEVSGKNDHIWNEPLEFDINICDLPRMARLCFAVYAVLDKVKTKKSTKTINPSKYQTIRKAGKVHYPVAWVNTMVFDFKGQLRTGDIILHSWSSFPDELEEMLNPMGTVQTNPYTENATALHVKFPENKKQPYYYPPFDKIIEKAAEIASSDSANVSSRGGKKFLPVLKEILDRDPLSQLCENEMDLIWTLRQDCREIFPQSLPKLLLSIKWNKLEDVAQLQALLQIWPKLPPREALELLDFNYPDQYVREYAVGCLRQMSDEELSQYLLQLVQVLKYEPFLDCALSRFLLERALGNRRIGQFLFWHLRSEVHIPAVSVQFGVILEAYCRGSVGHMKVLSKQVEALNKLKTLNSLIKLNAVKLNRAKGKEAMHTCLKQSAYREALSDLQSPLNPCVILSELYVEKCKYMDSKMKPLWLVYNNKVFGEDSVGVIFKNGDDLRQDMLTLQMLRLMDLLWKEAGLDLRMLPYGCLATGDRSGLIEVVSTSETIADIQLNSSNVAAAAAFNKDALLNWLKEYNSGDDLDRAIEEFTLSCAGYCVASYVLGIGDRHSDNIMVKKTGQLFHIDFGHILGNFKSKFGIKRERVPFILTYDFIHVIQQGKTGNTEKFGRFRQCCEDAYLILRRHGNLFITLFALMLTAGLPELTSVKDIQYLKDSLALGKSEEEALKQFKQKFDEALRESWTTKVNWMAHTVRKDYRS
Sequence (P27986 whole entry partner): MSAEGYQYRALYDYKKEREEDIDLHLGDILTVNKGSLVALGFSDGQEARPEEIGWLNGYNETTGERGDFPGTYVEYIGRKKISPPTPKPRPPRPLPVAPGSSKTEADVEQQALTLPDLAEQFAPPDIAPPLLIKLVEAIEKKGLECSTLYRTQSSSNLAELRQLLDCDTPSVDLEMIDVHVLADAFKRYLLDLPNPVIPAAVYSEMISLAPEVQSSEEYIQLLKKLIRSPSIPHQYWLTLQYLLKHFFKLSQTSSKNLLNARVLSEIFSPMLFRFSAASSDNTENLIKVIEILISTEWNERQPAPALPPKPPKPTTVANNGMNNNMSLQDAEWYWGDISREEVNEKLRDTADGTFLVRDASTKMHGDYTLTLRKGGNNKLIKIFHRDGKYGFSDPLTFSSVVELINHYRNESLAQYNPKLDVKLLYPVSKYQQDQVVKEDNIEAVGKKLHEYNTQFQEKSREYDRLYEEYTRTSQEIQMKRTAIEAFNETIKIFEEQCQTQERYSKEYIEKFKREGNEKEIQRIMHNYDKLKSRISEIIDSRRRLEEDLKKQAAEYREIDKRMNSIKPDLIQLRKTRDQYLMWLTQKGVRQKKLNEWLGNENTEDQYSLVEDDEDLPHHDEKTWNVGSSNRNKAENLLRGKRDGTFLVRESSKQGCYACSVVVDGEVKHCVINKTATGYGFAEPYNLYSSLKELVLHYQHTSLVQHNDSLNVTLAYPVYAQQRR
Assay: PI3K beta in vitro inhibition
Format: biochemical
Conditions: not given
Procedure: as §1

C=CS(=O)(=O)N(C)c1cccc(-c2csc3c(=O)cc(N4CCOCC4)oc23)c1 [Compound 47] and C=CS(=O)(=O)N(c1cccc(-c2csc3c(=O)cc(N4CCOCC4)oc23)c1)S(=O)(=O)C=C [Compound 50] cannot be ordered by IC50: < 0.5 µM for the first, < 0.5 µM for the second.

C=CS(=O)(=O)N(C)c1cc(-c2csc3c(=O)cc(N4CCOCC4)oc23)ccc1OC [Compound 48] and C=CS(=O)(=O)N(c1cc(-c2csc3c(=O)cc(N4CCOCC4)oc23)ccc1OC)S(=O)(=O)C=C [Compound 49] cannot be ordered by IC50: < 0.5 µM for the first, < 0.5 µM for the second.

C=CS(=O)(=O)N(CCS(=O)(=O)N(c1cc(-c2csc3c(=O)cc(N4CCOCC4)oc23)ccc1OC)S(=O)(=O)C=C)c1cc(-c2csc3c(=O)cc(N4CCOCC4)oc23)ccc1OC [Compound 51] was tested, and the IC50 was < 0.5 µM.

Biological target: T1, BRD4-1 (Homo sapiens, UniProt O60885)
T1 construct: BRD4-1
Assay: BRD4-1 in vitro inhibition
Format: binding
Conditions: not given
Procedure: as §1

C=CS(=O)(=O)N(C)c1cccc(-c2csc3c(=O)cc(N4CCOCC4)oc23)c1 [Compound 47] and C=CS(=O)(=O)N(c1cccc(-c2csc3c(=O)cc(N4CCOCC4)oc23)c1)S(=O)(=O)C=C [Compound 50] cannot be ordered by IC50: < 0.5 µM for the first, < 0.5 µM for the second.

C=CS(=O)(=O)N(C)c1cc(-c2csc3c(=O)cc(N4CCOCC4)oc23)ccc1OC [Compound 48] and C=CS(=O)(=O)N(c1cc(-c2csc3c(=O)cc(N4CCOCC4)oc23)ccc1OC)S(=O)(=O)C=C [Compound 49] cannot be ordered by IC50: < 0.5 µM for the first, < 0.5 µM for the second.

First: C=CS(=O)(=O)N(CCS(=O)(=O)N(c1cc(-c2csc3c(=O)cc(N4CCOCC4)oc23)ccc1OC)S(=O)(=O)C=C)c1cc(-c2csc3c(=O)cc(N4CCOCC4)oc23)ccc1OC [Compound 51]
Second: Cc1nn(-c2ccnc(Nc3ccc(-c4csc5c(=O)cc(N6CCOCC6)oc45)cc3)n2)cc1CN1CC(O)C1 [Compound 52]
The IC50 of the first is lower: 1 to 10 µM for the first, > 45 µM for the second. The first is the more potent here.

For Cc1nn(-c2ccnc(Nc3ccc(-c4csc5c(=O)cc(N6CCNCC6)oc45)cc3)n2)cc1CN1CC(O)C1 [Compound 53], the IC50 was 10 to 45 µM.

Biological target: PI3K alpha (Homo sapiens, UniProt P42336)
Sequence (P42336 whole entry): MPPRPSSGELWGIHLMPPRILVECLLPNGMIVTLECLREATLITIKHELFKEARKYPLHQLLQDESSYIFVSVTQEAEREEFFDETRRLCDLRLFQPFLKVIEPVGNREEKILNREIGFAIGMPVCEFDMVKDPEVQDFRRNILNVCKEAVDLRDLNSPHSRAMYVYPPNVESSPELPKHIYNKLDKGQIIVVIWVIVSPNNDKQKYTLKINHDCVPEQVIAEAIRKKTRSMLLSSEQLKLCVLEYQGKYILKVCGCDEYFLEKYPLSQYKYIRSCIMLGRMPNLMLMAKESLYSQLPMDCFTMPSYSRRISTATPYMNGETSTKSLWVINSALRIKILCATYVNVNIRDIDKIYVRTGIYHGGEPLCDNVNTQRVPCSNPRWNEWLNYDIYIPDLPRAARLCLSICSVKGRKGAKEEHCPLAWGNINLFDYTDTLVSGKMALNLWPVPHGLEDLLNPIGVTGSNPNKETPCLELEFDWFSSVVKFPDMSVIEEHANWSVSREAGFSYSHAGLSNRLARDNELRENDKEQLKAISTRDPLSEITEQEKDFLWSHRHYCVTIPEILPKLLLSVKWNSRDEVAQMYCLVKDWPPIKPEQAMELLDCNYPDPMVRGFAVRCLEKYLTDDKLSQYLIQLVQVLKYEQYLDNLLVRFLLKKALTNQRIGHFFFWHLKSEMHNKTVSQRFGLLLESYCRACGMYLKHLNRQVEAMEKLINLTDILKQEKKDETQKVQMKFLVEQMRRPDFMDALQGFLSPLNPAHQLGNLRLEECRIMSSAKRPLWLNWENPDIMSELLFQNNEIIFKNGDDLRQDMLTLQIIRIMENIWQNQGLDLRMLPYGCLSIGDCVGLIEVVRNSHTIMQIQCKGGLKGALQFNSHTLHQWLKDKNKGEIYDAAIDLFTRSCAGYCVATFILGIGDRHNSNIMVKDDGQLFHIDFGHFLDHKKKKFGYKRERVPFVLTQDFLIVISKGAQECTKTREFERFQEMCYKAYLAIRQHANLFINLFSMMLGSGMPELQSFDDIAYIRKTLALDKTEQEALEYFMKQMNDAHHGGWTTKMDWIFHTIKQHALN
Sequence (P27986 whole entry partner): as the sequence (P27986 whole entry partner) above
Assay: PI3K alpha in vitro inhibition
Format: biochemical
Conditions: not given
Procedure: as §1

C=CS(=O)(=O)N(C)c1cccc(-c2csc3c(=O)cc(N4CCOCC4)oc23)c1 [Compound 47] and C=CS(=O)(=O)N(c1cccc(-c2csc3c(=O)cc(N4CCOCC4)oc23)c1)S(=O)(=O)C=C [Compound 50] cannot be ordered by IC50: < 0.5 µM for the first, < 0.5 µM for the second.

C=CS(=O)(=O)N(C)c1cc(-c2csc3c(=O)cc(N4CCOCC4)oc23)ccc1OC [Compound 48] and C=CS(=O)(=O)N(c1cc(-c2csc3c(=O)cc(N4CCOCC4)oc23)ccc1OC)S(=O)(=O)C=C [Compound 49] cannot be ordered by IC50: < 0.5 µM for the first, < 0.5 µM for the second.

First: C=CS(=O)(=O)N(CCS(=O)(=O)N(c1cc(-c2csc3c(=O)cc(N4CCOCC4)oc23)ccc1OC)S(=O)(=O)C=C)c1cc(-c2csc3c(=O)cc(N4CCOCC4)oc23)ccc1OC [Compound 51]
Second: Cc1nn(-c2ccnc(Nc3ccc(-c4csc5c(=O)cc(N6CCOCC6)oc45)cc3)n2)cc1CN1CC(O)C1 [Compound 52]
The IC50 of the first is lower: < 0.5 µM for the first, 0.5 to 1 µM for the second.

For Cc1nn(-c2ccnc(Nc3ccc(-c4csc5c(=O)cc(N6CCNCC6)oc45)cc3)n2)cc1CN1CC(O)C1 [Compound 53], the IC50 was 1 to 10 µM.

Biological target: CDK4 cyclinD1 (Homo sapiens, UniProt P11802)
Assay: CDK4 cyclinD1 in vitro inhibition
Format: biochemical
Conditions: not given
Procedure: as §1, §2

First: Cc1nn(-c2ccnc(Nc3ccc(-c4csc5c(=O)cc(N6CCOCC6)oc45)cc3)n2)cc1CN1CC(O)C1 [Compound 52]
Second: Cc1nn(-c2ccnc(Nc3ccc(-c4csc5c(=O)cc(N6CCNCC6)oc45)cc3)n2)cc1CN1CC(O)C1 [Compound 53]
The IC50 of the first is higher: 10 to 45 µM for the first, 1 to 10 µM for the second.

Biological target: BTK C481S (Homo sapiens, UniProt Q06187, C481S)
Sequence (Q06187 whole entry C481S): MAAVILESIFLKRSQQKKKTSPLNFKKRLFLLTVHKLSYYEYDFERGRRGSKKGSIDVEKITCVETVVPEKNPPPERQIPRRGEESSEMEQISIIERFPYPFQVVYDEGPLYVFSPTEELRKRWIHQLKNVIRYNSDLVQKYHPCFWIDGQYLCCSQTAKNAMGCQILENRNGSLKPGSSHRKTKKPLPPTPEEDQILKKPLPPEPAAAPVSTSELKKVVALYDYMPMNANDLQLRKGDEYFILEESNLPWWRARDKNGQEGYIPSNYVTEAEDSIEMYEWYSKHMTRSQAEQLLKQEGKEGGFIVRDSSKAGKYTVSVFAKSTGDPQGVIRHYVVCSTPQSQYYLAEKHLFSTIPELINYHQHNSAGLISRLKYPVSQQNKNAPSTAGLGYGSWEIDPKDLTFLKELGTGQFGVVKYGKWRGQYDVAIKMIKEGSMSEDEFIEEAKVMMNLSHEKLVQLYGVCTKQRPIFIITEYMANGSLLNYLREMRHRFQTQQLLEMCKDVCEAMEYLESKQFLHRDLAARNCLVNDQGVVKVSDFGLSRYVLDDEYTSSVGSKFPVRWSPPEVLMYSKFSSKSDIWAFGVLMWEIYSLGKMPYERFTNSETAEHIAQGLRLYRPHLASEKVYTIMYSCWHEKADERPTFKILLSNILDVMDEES
Assay: BTK C481S in vitro inhibition
Format: biochemical
Conditions: not given
Procedure: as §1, §2

First: C=CS(=O)(=O)N(C)c1cccc(-c2csc3c(=O)cc(N4CCOCC4)oc23)c1 [Compound 47]
Second: C=CS(=O)(=O)N(c1cccc(-c2csc3c(=O)cc(N4CCOCC4)oc23)c1)S(=O)(=O)C=C [Compound 50]
The IC50 of the first is higher: > 45 µM for the first, 10 to 45 µM for the second.

First: C=CS(=O)(=O)N(C)c1cc(-c2csc3c(=O)cc(N4CCOCC4)oc23)ccc1OC [Compound 48]
Second: C=CS(=O)(=O)N(c1cc(-c2csc3c(=O)cc(N4CCOCC4)oc23)ccc1OC)S(=O)(=O)C=C [Compound 49]
The IC50 of the first is higher: > 45 µM for the first, 10 to 45 µM for the second. The second is the more potent here.

C=CS(=O)(=O)N(CCS(=O)(=O)N(c1cc(-c2csc3c(=O)cc(N4CCOCC4)oc23)ccc1OC)S(=O)(=O)C=C)c1cc(-c2csc3c(=O)cc(N4CCOCC4)oc23)ccc1OC [Compound 51] was tested, and the IC50 was 10 to 45 µM.

Biological target: T2, BRD4-2 (Homo sapiens, UniProt O60885)
T2 construct: BRD4-2
Assay: BRD4-2 in vitro inhibition
Format: binding
Conditions: not given
Procedure: as §1

Compared with C=CS(=O)(=O)N(C)c1cccc(-c2csc3c(=O)cc(N4CCOCC4)oc23)c1 [Compound 47], C=CS(=O)(=O)N(c1cccc(-c2csc3c(=O)cc(N4CCOCC4)oc23)c1)S(=O)(=O)C=C [Compound 50] is lower in IC50: 0.5 to 1 µM for the first, < 0.5 µM for the second. The second is the more potent here.

First: C=CS(=O)(=O)N(C)c1cc(-c2csc3c(=O)cc(N4CCOCC4)oc23)ccc1OC [Compound 48]
Second: C=CS(=O)(=O)N(c1cc(-c2csc3c(=O)cc(N4CCOCC4)oc23)ccc1OC)S(=O)(=O)C=C [Compound 49]
The IC50 of the first is lower: < 0.5 µM for the first, 1 to 10 µM for the second.

First: C=CS(=O)(=O)N(CCS(=O)(=O)N(c1cc(-c2csc3c(=O)cc(N4CCOCC4)oc23)ccc1OC)S(=O)(=O)C=C)c1cc(-c2csc3c(=O)cc(N4CCOCC4)oc23)ccc1OC [Compound 51]
Second: Cc1nn(-c2ccnc(Nc3ccc(-c4csc5c(=O)cc(N6CCOCC6)oc45)cc3)n2)cc1CN1CC(O)C1 [Compound 52]
The IC50 of the first is lower: < 0.5 µM for the first, > 45 µM for the second. The first is the more potent here.

In the case of Cc1nn(-c2ccnc(Nc3ccc(-c4csc5c(=O)cc(N6CCNCC6)oc45)cc3)n2)cc1CN1CC(O)C1 [Compound 53], the IC50 is reported as > 45 µM.

Biological target: Syk (Homo sapiens, UniProt P43405)
Assay: Syk in vitro inhibition
Format: biochemical
Conditions: not given
Procedure: as §1, §2

Cc1nn(-c2ccnc(Nc3ccc(-c4csc5c(=O)cc(N6CCOCC6)oc45)cc3)n2)cc1CN1CC(O)C1 [Compound 52] and Cc1nn(-c2ccnc(Nc3ccc(-c4csc5c(=O)cc(N6CCNCC6)oc45)cc3)n2)cc1CN1CC(O)C1 [Compound 53] cannot be ordered by IC50: < 0.5 µM for the first, < 0.5 µM for the second.

Biological target: PI3K delta (Homo sapiens, UniProt O00329)
Assay: PI3K delta in vitro inhibition
Format: biochemical
Conditions: not given
Procedure: as §1, §2

Cc1nn(-c2ccnc(Nc3ccc(-c4csc5c(=O)cc(N6CCOCC6)oc45)cc3)n2)cc1CN1CC(O)C1 [Compound 52] and Cc1nn(-c2ccnc(Nc3ccc(-c4csc5c(=O)cc(N6CCNCC6)oc45)cc3)n2)cc1CN1CC(O)C1 [Compound 53] fall in the same range of IC50: 1 to 10 µM for the first, 1 to 10 µM for the second.

Biological target: CDK6 cyclinD1 (Homo sapiens, UniProt Q00534)
Assay: CDK6 cyclinD1 in vitro inhibition
Format: biochemical
Conditions: not given
Procedure: as §1, §2

Cc1nn(-c2ccnc(Nc3ccc(-c4csc5c(=O)cc(N6CCOCC6)oc45)cc3)n2)cc1CN1CC(O)C1 [Compound 52] and Cc1nn(-c2ccnc(Nc3ccc(-c4csc5c(=O)cc(N6CCNCC6)oc45)cc3)n2)cc1CN1CC(O)C1 [Compound 53] cannot be ordered by IC50: < 0.5 µM for the first, < 0.5 µM for the second.

Biological target: BTK (Homo sapiens, UniProt Q06187)
Sequence (Q06187 whole entry): as the sequence (Q06187 whole entry C481S) above, with S481C counted along it
Assay: BTK in vitro inhibition
Format: biochemical
Conditions: not given
Procedure: as §1, §2

C=CS(=O)(=O)N(C)c1cccc(-c2csc3c(=O)cc(N4CCOCC4)oc23)c1 [Compound 47] and C=CS(=O)(=O)N(c1cccc(-c2csc3c(=O)cc(N4CCOCC4)oc23)c1)S(=O)(=O)C=C [Compound 50] cannot be ordered by IC50: < 0.5 µM for the first, < 0.5 µM for the second.

C=CS(=O)(=O)N(C)c1cc(-c2csc3c(=O)cc(N4CCOCC4)oc23)ccc1OC [Compound 48] and C=CS(=O)(=O)N(c1cc(-c2csc3c(=O)cc(N4CCOCC4)oc23)ccc1OC)S(=O)(=O)C=C [Compound 49] cannot be ordered by IC50: < 0.5 µM for the first, < 0.5 µM for the second.

C=CS(=O)(=O)N(CCS(=O)(=O)N(c1cc(-c2csc3c(=O)cc(N4CCOCC4)oc23)ccc1OC)S(=O)(=O)C=C)c1cc(-c2csc3c(=O)cc(N4CCOCC4)oc23)ccc1OC [Compound 51] was tested, and the IC50 was 1 to 10 µM.
